Experiment [1] deals with LPS-induced TNF-alpha release from human peripheral blood mononuclear leukocytes. The experiment is described as follows: Human peripheral blood mononuclear leukocyte cell assay (LPS-induced TNF-alpha release, ELISA). The experiment is classed as cell-based. The following applies: 25 ng/mL LPS, 16 hours incubation, read-out: IC50 for inhibition of TNF-alpha release. How it is done: The quantity of LPS-induced tumor necrosis factor-alpha (TNF-alpha) cytokine release is measured by a commercially available Enzyme-Linked Immunosorbent Assay (ELISA) kit. Test compounds are evaluated for their ability to inhibit TNF-alpha release. […] Test compounds evaluated are illustrated in Table 4.

Experiment [2] concerns the target T1, phospho p-38 alpha kinase (Homo sapiens, UniProt Q16539).
T1 construct: purchased Panvera
The experiment in a line: P-38 alpha kinase assay (spectrophotometric, pyruvate kinase/lactate dehydrogenase coupled). The experiment is classed as biochemical. The conditions noted are these: for IC50: Table 2, rates from […] to 2 h time frame.

Experiment [3] has as its target p38 MAP kinase (unphosphorylated p38-alpha kinase) (Homo sapiens, UniProt Q16539). The experiment in a line: P38 MAP kinase binding assay (fluorescence competition with SKF 86002 probe). The conditions noted are these: for Time-dependent: time-dependent if IC50 values decrease with the reaction time (more than two-fold in four hours). As for the experimental part:
The reaction was initiated by addition of the enzyme. […] By comparison of rfu (relative fluorescence unit) values with that of a control (in the absence of an inhibitor), the percentage of inhibition at each concentration of the inhibitor was calculated. IC50 value for the inhibitor was calculated from the % inhibition values obtained at a range of concentrations of the inhibitor using Prism. When time-dependent inhibition was assessed, the plate was read at multiple reaction times such as 0.5, 1, 2, 3, 4 and 6 hours. The IC50 values were calculated at the each time point. An inhibition was assigned as time-dependent if the IC50 values decrease with the reaction time (more than two-fold in four hours).

Consider eleven compounds from US20070191336A1 (priority 2003, published 2007).

Read-outs that look alike come from different tables or passages of the source.

Sequence of p38 MAP kinase (unphosphorylated p38-alpha kinase) (Q16539 whole entry): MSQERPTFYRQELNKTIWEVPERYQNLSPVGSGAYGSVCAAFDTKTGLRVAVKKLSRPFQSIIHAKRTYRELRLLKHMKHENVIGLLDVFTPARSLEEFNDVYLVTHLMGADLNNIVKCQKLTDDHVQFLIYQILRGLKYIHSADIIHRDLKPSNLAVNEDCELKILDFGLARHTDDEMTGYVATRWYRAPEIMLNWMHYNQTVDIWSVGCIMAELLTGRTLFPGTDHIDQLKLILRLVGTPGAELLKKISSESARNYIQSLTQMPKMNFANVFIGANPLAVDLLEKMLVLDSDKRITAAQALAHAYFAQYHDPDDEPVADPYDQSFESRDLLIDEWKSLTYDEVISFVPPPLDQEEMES
T1 sequence (Q16539 whole entry): as above

Take `CC(C)(C)c1cc(NC(=O)Nc2cccc3ccccc23)n(-c2cccc(CN3C(=O)CNS3(=O)=O)c2)n1` [Example 3, 1-(3-tert-butyl-1-{[3-(1,1,3-trioxo-[1,2,5]thiadiazolidin-2-yl)methyl]phenyl}-1H-pyrazol-5-yl)-3-(naphthalen-1-yl)urea]: in experiment [1], the IC50 (usually the concentration needed to halve the response being measured) is 6100 nM.

On to `CC1(C(=O)O)CC2(C)CC(C)(C1)C(=O)N(Cc1cccc(-n3nc(C(C)(C)C)cc3NC(=O)Nc3cccc4ccccc34)c1)C2=O` (centres unmarked) [Example 11], for which the IC50 in experiment [2] turned out to be 953 nM; in experiment [3] (read-out: IC50), 2150 nM. Also, the Time-dependent result in experiment [3] is recorded as “No”.

For `CC1(C(=O)O)CC2(C)CC(C)(C1)C(=O)N(Cc1cccc(-n3nc(C(C)(C)C)cc3NC(=O)Nc3ccc(Cl)cc3)c1)C2=O` (centres unmarked) [Example 12], in experiment [2] (read-out: % inhibition @ concentration, Table 2, at 10 uM), the inhibition at 10 µM is 70%. In experiment [3], the IC50 was approximately 10000 nM and the Time-dependent entry is on record as “No”.

For `CC1(C)C(=O)NN(Cc2cccc(-n3nc(C(C)(C)C)cc3NC(=O)Nc3cccc4ccccc34)c2)C1=O` [Example 13, 1-(3-tert-butyl-1-{3-[(4,4-dimethyl-3,5-dioxopyrazolidin-1-yl)methyl]phenyl}-1H-pyrazol-5-yl)-3-(naphthalen-1-yl)urea], the IC50 in experiment [1] amounted to 6320 nM.

Consider `CC(C)(C)c1cc(NC(=O)Nc2cccc3ccccc23)n(-c2cccc(CC(=O)N3CCOCC3)c2)n1` [Example 21, 1-{3-tert-butyl-1-[3-(2-morpholino-2-oxoethyl)phenyl]-1H-pyrazol-5-yl}-3-(naphthalene-1-yl)urea], for which the results for the IC50 in experiment [2], in experiment [3] and in experiment [1] were 171 nM, 48 nM and 3400 nM, respectively. Besides, in experiment [3], the Time-dependent result is “Yes”.

For `CC(C)(C)c1cc(NC(=O)Nc2cccc3ccccc23)n(-c2cccc(CCC(=O)O)c2)n1` [Example 29], in experiment [1], the IC50 came to 2680 nM.

Turning to `CC(C)(C)c1cc(NC(=O)Nc2cccc3ccccc23)n(-c2ccc(CCC(=O)O)cc2)n1` [Example 31, 3-{4-[3-tert-butyl-5-(3-(naphthalene-1-yl)ureido]-1H-pyrazol-1-yl}phenyl)propanonic acid], the IC50 in experiment [1] is 4520 nM.

For the compound `CC(C)(C)c1cc(NC(=O)Nc2cccc3ccccc23)n(-c2ccc(CN)cc2)n1` [Example 45, 1-{3-tert-butyl-1-[4-(aminomethyl)phenyl]-1H-pyrazol-5-yl}-3-(naphthalen-1-yl)urea], the IC50 was 480 nM in experiment [2] and 1860 nM in experiment [3] (read-out: IC50). Further, the Time-dependent result in experiment [3] was “No”.

For the compound `CC(C)(C)c1cc(NC(=O)Nc2ccc(Br)cc2)n(-c2ccc(CO)cc2)n1` [Example 60], the IC50 in experiment [1] is 2340 nM.

As for `CCOC(=O)CCc1ccc(-n2nc(C(C)(C)C)cc2NC(=O)Nc2cccc3ccccc23)cc1` [Example 296, ethyl 3-(4-(3-tert-butyl-5-(3-(naphthalen-1-yl)ureido)-1H-pyrazol-1-yl)phenyl)propanoate], in experiment [1], the IC50 came out at 3490 nM.

With `CC(C)(C)c1cc(NC(=O)Nc2cccc3ccccc23)n(-c2cccc(CCN3CCOCC3)c2)n1` [Example 300], in experiment [1], the IC50 worked out at 4780 nM.
